Patent US20100119502A1, “THERAPY REGIMENS, DOSING REGIMENS AND STABLE MEDICAMENTS FOR THE TREATMENT OF POMPE DISEASE” (AMICUS THERAPEUTICS, INC., priority 2008, published 2010)
“Also recorded” adds a separate entry of the source. Structures can show the parent of a compound that is named as a salt.

What was measured:
GAA KO mice [1] = experiment: In vivo uptake of Myozyme in GAA KO mice with and without oral 1-DNJ-HCl (4-MUG tissue GAA activity)
Source text: Enzymatic activity as determined using a 4-MUG fluorogenic substrate assay.

GAA KO mouse = experiment: GAA enzyme activity in heart and diaphragm of GAA KO mouse (rhGAA uptake); type: in vivo; conditions: rhGAA co-administered with 1-DNJ-HCl vs ERT monotherapy
Method: Heart and Diaphragm tissue homogenates were harvested and rhGAA activity was measured using the fluorogenic substrate (4-MUG).

rhGAA (Myozyme™) = target: T1, rhGAA (Myozyme™) (Homo sapiens, UniProt P10253); experiment: rhGAA enzyme inactivation in citrate anti-coagulated whole blood at 37° C.; type: in vitro ADME; conditions: for rhGAA enzyme inactivated: whole blood 37° C., no 1-DNJ-HCl
T1 construct: purchased Genzyme Corp; host or cells: Chinese hamster ovary cell line
Method: Aliquots were collected at 0, 2, 4, 8 and 24 hrs and centrifuged to obtain plasma. These plasma samples were then diluted in potassium acetate buffer (pH 4.0) and assayed for GAA activity using the 4-methylumbeliferyl-α-glucose (4-MUG) fluorogenic substrate. The measured GAA activity for individual samples at each time point was normalized to the 0 hr and expressed as % of initial activity. Data from 4 independent experiments were analyzed to obtain the mean (and standard deviation) and plotted versus time to assess the loss of enzyme activity over this time course.
Aliquots were collected at 0, 3 and 6 hrs and centrifuged to obtain plasma. These plasma samples were then diluted in potassium acetate buffer (pH 4.0) and assayed for GAA activity using the 4-methylumbeliferyl-a-glucose (4-MUG) fluorogenic substrate. The measured GAA activity for individual samples at each time point was normalized to the 0 hr and expressed as % of initial activity.
Based on human plasma PK data, these concentrations are readily obtainable in the clinic.

GAA KO mice [2] = experiment: Tissue glycogen reduction in GAA KO mice; type: in vivo; conditions: Myozyme co-administered with 30 mg/kg 1-DNJ-HCl
Method: To prevent anaphylaxis, before the third and fourth Myozyme™ injection, diphenhydramine (10 mg/kg intraperitoneally) was administered 10 min before Myozyme™ injection. […] Mice were euthanized 14 days after the last Myozyme™ administration. Glycogen levels in heart, diaphragm, soleus, and quadriceps were then measured. […] Supernatants were heat denatured (99° C. for 10 min) to remove endogenous amyloglucosidase activity. […] The reaction was stopped by inactivation at 100° C. for 10 min. […] Simultaneously, the amount of protein was determined in tissue homogenates using the Micro BCA Protein Assay (Pierce, Rockford, Ill.) following the manufacturer's instructions. The glycogen content of each sample was normalized to protein, and data were finally expressed as micrograms of glycogen per milligram of protein (μg/mg protein).

[3] = target: T2, recombinant human GAA (Myozyme®, Genzyme Corp.) (Homo sapiens, UniProt P10253); experiment: SYPRO Orange thermal stability assay of rhGAA; type: binding
T2 construct: purchased Genzyme Corp; host or cells: Chinese hamster ovary cell line
Source text: The thermal stability assay utilizes heat to induce protein denaturation, which is monitored using a SYPRO Orange dye that fluoresces upon binding to hydrophobic amino acids (which are not exposed in a folded protein).
FIG. 2B depicts a parallel SYPRO Orange thermal stability experiment to determine if the loss of enzyme activity shown in FIG. 2A, particularly the loss of Myozyme activity at ER pH (7.4), correlates with protein unfolding and denaturation. […]
Denaturation is monitored using a SYPRO Orange dye that fluoresces upon binding to hydrophobic amino acids (which are not exposed in a folded protein).
The thermal stability was performed at pH 7.4 for two formulations, which corresponds to the pH of the ER.
In order to determine if loss of initial enzyme activity is correlated to failure to maintain a proper conformation, a SYPRO Orange thermal stability experiment was performed on the samples above as generally described in Example 1. […] Based on this experiment, the % of GAA folded was estimated and plotted in FIG. 2B. […]

[4] = stored at 2 to 8° C.; cited from earlier work

Row | rhGAA uptake in the heart and diaphragm (GAA activity) (GAA KO mouse) | rhGAA activity in whole blood (rhGAA (Myozyme™); rhGAA with 50 μM 1-DNJ-HCl, 37° C., up to 24 hrs) | rhGAA enzyme inactivated (rhGAA (Myozyme™); by 4 hrs) | rhGAA enzyme inactivated (rhGAA (Myozyme™); by 8 hrs) [%] | rhGAA enzyme inactivated (rhGAA (Myozyme™); by 24 hrs) [%] | Compound | Myozyme tissue uptake (as a measure of GAA activity) with coadministered 1-DNJ-HCl (GAA KO mice [1]; Myozyme 10 mg/kg IV weekly up to 3 weeks plus 10, 100, 1000 mg/kg oral 1-DNJ-HCl) | stabilizing rhGAA and preventing enzyme inactivation in whole blood (rhGAA (Myozyme™); high 1-DNJ-HCl concentrations (50 and 100 μM)) | tissue glycogen reduction compared to Myozyme alone (GAA KO mice [2]) | GAA folding / denaturation (% of GAA folded) ([3]; 37° C. over 24 hours, Myozyme 0.9 μM, pH 7.4, with or without 100 μM 1-DNJ-HCl) | stability of rhGAA (heat required to denature) ([3]; pH 7.4, Myozyme plus 100 μM 1-DNJ-HCl vs Myozyme alone, hydrochloride) | time the product is stable on storage [4] | Myozyme tissue uptake (as a measure of GAA activity) (GAA KO mice [1]; Myozyme 10 mg/kg IV weekly, 7 days post injection) | stability of rhGAA by pH ([3]; Myozyme alone, pH 5.2 vs pH 7.4)
1 | increased | remained completely active |  |  |  | OC[C@H]1NC[C@H](O)[C@@H](O)[C@@H]1O [1-DNJ-HCl, 1-deoxynorjirimycin hydrochloride] | dose-dependent increase in Myozyme uptake | best for stabilizing rhGAA and preventing enzyme inactivation | significantly greater tissue glycogen reduction | can prevent GAA denaturation and loss of enzyme activity | required significantly more heat to denature; also recorded: significantly increased |  |  | 
2 |  |  | approximately 40% | ~70 | ~100 | Myozyme: alglucosidase alfa, human acid α-glucosidase produced by recombinant DNA technology in a Chinese hamster ovary cell line (Genzyme) |  |  |  |  |  | up to 24 hours | declined at 7 days post injection | much more stable at lysosomal pH (5.2) than at ER pH (7.4)
